Source: ChEMBL document CHEMBL5223153, “Elucidation of protective effects of oxime derivatives against cisplatin-induced cytotoxicity in LLC-PK1 kidney cells” (2023)
Active and inactive are the calls of the source. No cut-off for these calls is given here.

Columns and labels:
LLC-PK1 [1] = assay: Nephroprotective activity against cisplatin induced cytotoxicity in pig LLC-PK1 cells assessed as decrease in cleaved caspase-3 level at 125 uM incubated for 24 hrs by Western blot analysis; assay type: functional, cell-based; conditions: Sus scrofa
LLC-PK1 [2] = assay: Nephroprotective activity against cisplatin induced cytotoxicity in pig LLC-PK1 cells assessed as decrease in phosphorylated ERK level at 125 uM incubated for 24 hrs by Western blot analysis; assay type: functional, cell-based; conditions: Sus scrofa
LLC-PK1 [3] = assay: Nephroprotective activity against cisplatin induced cytotoxicity in pig LLC-PK1 cells assessed as increase in cell viability at 50 uM incubated for 24 hrs by MTT assay; assay type: functional, Sus scrofa
LLC-PK1 [4] = assay: Nephroprotective activity against cisplatin induced apoptosis in pig LLC-PK1 cells assessed as decrease in ratio of apoptotic cells at 125 uM incubated for 24 hrs by annexin V staining based image cytometric analysis; assay type: functional, cell-based; conditions: Sus scrofa
LLC-PK1 [5] = assay: Nephroprotective activity against cisplatin induced cytotoxicity in pig LLC-PK1 cells assessed as decrease in phosphorylated JNK level at 125 uM incubated for 24 hrs by Western blot analysis; assay type: functional, cell-based; conditions: Sus scrofa
LLC-PK1 [6] = assay: Nephroprotective activity against cisplatin induced cytotoxicity in pig LLC-PK1 cells assessed as increase in cell viability at 25 uM incubated for 24 hrs by MTT assay; assay type: functional, Sus scrofa
LLC-PK1 [7] = assay: Nephroprotective activity against cisplatin induced cytotoxicity in pig LLC-PK1 cells assessed as increase in cell viability at 125 uM incubated for 24 hrs by MTT assay; assay type: functional, Sus scrofa
LLC-PK1 [8] = assay: Nephroprotective activity against cisplatin induced cytotoxicity in pig LLC-PK1 cells assessed as increase in cell viability at 250 uM incubated for 24 hrs by MTT assay; assay type: functional, Sus scrofa

SMILES | Activity (LLC-PK1 [1]) | Activity (LLC-PK1 [2]) | Activity (LLC-PK1 [3]) [%] | Activity (LLC-PK1 [4]) | Activity (LLC-PK1 [5]) | Activity (LLC-PK1 [6]) [%] | Activity (LLC-PK1 [7]) [%] | Activity (LLC-PK1 [8]) [%]
COc1cc(Br)c(/C=C/C(=N/O)c2ccc(Br)cc2)cc1OC | Active | Active | 83.86 | Active | Active | 66.83 | 83.79 | 94.78
COc1cc(Br)c(/C=C/C(=N/O)c2ccc(Cl)cc2)cc1OC | Active | Active | 82.22 | Active | Active | – | 84.41 | 94.51
